Reference: US20140050754A1, “IMMUNOGENIC CHIKUNGUNYA VIRUS PEPTIDES” (priority 2010, published 2014)

How the values were obtained:
[1] = test system: anti-CHIKV IgG3 antibodies in pooled patients' plasma; test: Affinity depletion of anti-E2EP3 antibodies, read by virion-based ELISA; assay type: binding, human; conditions: pooled plasma median 10 days pio, whole virus ELISA, relative to non-depleted samples
Description: […]; 50 μl/well). Wells were blocked with PBST-milk (PBS, 0.05% Tween 20, 5% non-fat milk) and plates were incubated for about 1.5 hours at about 37° C. Plasma samples were then diluted 1:500, 1:2000 in PBST-milk and incubated 1 hour at about 37° C. HRP-conjugated mouse anti-human IgG, IgG1, IgG2, IgG3, IgG4 and IgM (Molecular Probes) were used to detect human antibodies bound to virus-coated wells. Reactions were developed using TMB substrate (Sigma-Aldrich) and stopped with stopping reagent (Sigma-Aldrich). The absorbance was measured at 450 nm. Healthy donor samples were used as controls. ELISA determinations were done in duplicates and the values plotted as means±standard error means (SEM).
(§1) For affinity depletion of human anti-E2EP3 antibodies, synthetic biotinylated E2EP3 peptide (EMC microcollections GmbH) was added at 450 ng/well to streptavidin-coated plates (Pierce) and incubated at room temperature for about 1 hour in PBS containing 0.1% Tween-20 (0.1% PBST). Human plasma samples were added and incubated for about 25 minutes at room temperature for absorption. The unbound portion was collected after 21 rounds of absorption. ELISA analysis was performed to verify the levels of the antibodies during affinity depletion.
In FIG. 9(c), depleted samples as described in FIG. 9(b) were subjected to anti-CHIKV IgG3 antibodies detection. Virion-based ELISA was performed as described to measure the depletion efficiency. Outputs were expressed as percentage control IgG3 titer from non-depleted samples. Data were presented as mean±SD. Examples were performed in triplicates.

[2] = test system: CHIKV (SGP11) infection of HEK 293T cells; test: Affinity depletion of anti-E2EP3 antibodies, read by in vitro neutralization assay; assay type: cell-based, Chikungunya virus; conditions: plasma 1:500; about 20% with non-depleted plasma
Description: (§2) Neutralizing activity of CHIKV-infected patient samples were test in triplicates and were analyzed by immunofluorescence-based cell infection assay in HEK 293T cells, using Singapore strain CHIKV (SGP11). CHIKV were mixed at MOI 10 with diluted (1:100, 500 or 1,000) heat-inactivated human plasma and incubated for 2 hours at about 37° C. with gentle agitation (350 rpm). Virus-antibody mixtures were then added to HEK 293T cells seeded in 96-well plates and incubated for 1.5 hours at about 37° C. Virus inoculums (medium) were removed, and cells were replenished with DMEM medium supplied with 5% FBS and incubated for about 6 hours at about 37° C. before fixation with 4% paraformaldehyde followed by immunofluorescence quantification using the Cellomics ArrayScan V. The Cellomics ArrayScan. V was used as a complementary means of assessing neutralization capabilities of patients' plasma (same set-up as mentioned above), but involves an assessment endpoint at 6 hours post-infection (pi) to capture possible early protective responses against virus infection. Percentage infectivity was detected with High Content Screening and was calculated according to the equation: % Infectivity=100×(% responder from sero-neutralization group/% responder from virus infection group).
as §1
In FIG. 9(d), in vitro neutralizing activity of anti-E2EP3 antibodies against CHIKV-infected patients' plasma samples was observed. […] Outputs were expressed as percentage control infection. […]

[3] = test system: E2EP3-specific IgG3 antibodies in pooled patients' plasma; test: Affinity depletion of anti-E2EP3 antibodies, read by E2EP3 specific peptide-based ELISA; assay type: binding, human; conditions: pooled plasma median 10 days pio, relative to non-depleted samples
Description: as §1
Plasma samples (Median 10 days pio) were incubated with E2EP3 (K3, N5, K10), E2EP3 with double alanine substitution at lysine residues (K3A, N5, K10A) or triple alanine substitution at lysine and asparagine (K3A, N5A, K10A) peptides. E2EP3 specific peptide-based ELISA was performed to measure the depletion efficiency. Outputs were expressed as percentage control IgG3 titer from non-depleted samples. Data were presented as mean±SD. Examples were performed in triplicates.

[4] = test system: CHIKV (SGP11) infection of HEK 293T cells; test: Peptide blocking assay with human plasma followed by sero-neutralization assay; assay type: cell-based, Chikungunya virus; conditions: patients' plasma pools 1:500; 20% without peptide
Description: as §2, with “group). […]” for “group).”
Outputs were expressed as percentage control infection. […]

CHIKV (SGP11) [5] = test: CHIKV challenge of vaccinated mice: footpad swelling (inflammation); assay type: in vivo; conditions: day 0 to day 14 post-challenge
Description: (§3) Lyophilized KLH-E2EP3 peptide was dissolved in DMSO (Sigma-Aldrich) to a working concentration of 5 mg/mL. Three-weeks old, female, C57BL/6J (sample size, n=7) were vaccinated subcutaneously in the abdominal flank with 100 μg of KLH-E2EP3 peptide prepared in 100 μl emulsion with 50% Complete Freund's Adjuvant (CFA) (Sigma-Aldrich) in PBS. Vaccinated mice were further boosted another two times at day 14 and day 21 with 50 μg of the peptide prepared in Incomplete Freund's Adjuvant (IFA) (Sigma-Aldrich). Control mice (n=7) were vaccinated with PBS/CFA and PBS/IFA on first vaccination and subsequent booster shots respectively. […] Viremia and degree of inflammation were monitored. […] Hind footpads of mice were measured daily using a vernier calliper from day 0 to day 14 post-infection. Measurements were done for the height (thickness) and the breadth of the foot and quantified as [height×breadth]. Degree of inflammation was expressed as relative increase in footpad size as compared to pre-infection with the following formula: [(day x−day 0)÷day 0] where x is the footpad measurements for each respective day post-infection.
(§4) Mice were immunized with E2EP3 peptide complex to KLH or PBS Control emulsified with Complete Freund's Adjuvant (CFA) subcutaneously, and were boosted two more times with Incomplete Freund's Adjuvant (IFA). […] Outputs were expressed as percentage infection relative to PBS Control. […]

CHIKV infection in vitro = test: In vitro neutralizing activity of E2EP3-vaccinated mouse sera; assay type: cell-based, Chikungunya virus; conditions: sera 27 days post-vaccination, dilution 1:100
Description: as §2, with “V was used as a complementary means of assessing neutralization capabilities of patients' plasma (same set-up as mentioned above), but involves an assessment endpoint at 6 hours post-infection (pi) to capture possible early protective responses against virus infection.” left out
Lyophilized KLH-E2EP3 peptide was dissolved in DMSO (Sigma-Aldrich) to a working concentration of 5 mg/mL. […] Viremia and degree of inflammation were monitored. […] Hind footpads of mice were measured daily using a vernier calliper from day 0 to day 14 post-infection. Measurements were done for the height (thickness) and the breadth of the foot and quantified as [height×breadth]. […]

[6] = test system: CHIKV infection of HEK 293T cells; test: Peptide blocking assay with NHP plasma followed by in vitro neutralization assay; assay type: cell-based, Chikungunya virus; conditions: NHP plasma dilution series 1:100 to 1:3200, compared to untreated plasma
CHIKV (SGP11) [7] = test: CHIKV challenge of vaccinated mice: viremia by virus plaque assay; assay type: in vivo; conditions: 2 days post-challenge, challenge 30 days post-vaccination with 10^6 PFU s.c.; PBS control 4,500
Description: as §3, §4

C57BL/6J mice = test: KLH-E2EP3 vaccination of mice: E2EP3 specific peptide-based ELISA; assay type: in vivo; conditions: KLH-linked E2EP3 with CFA/IFA
Description: as §3
Importantly, the sera obtained at 27 days post-vaccination were able to neutralize CHIKV-infection in vitro. In FIGS. 17(a) and 17(b), mouse anti-E2EP3 IgG antibodies were detected after the second and third vaccination. All outputs were expressed as mean±SD. […]

With K3A/K10A (STADNFNVYAATRPYLAHC) the “reduction of total anti-CHIKV IgG3 titer after depletion with peptide” value (shortened to “reduction of total anti-CHIKV IgG3 titer”) [1] was 40%, the “virus infectivity (percentage control infection) with peptide-depleted plasma” value [2] was “only a gradual decrease of the neutralizing efficacy” and the “E2EP3-specific IgG3 depleted from patients' plasma by surface-bound peptide” value [3] was 30%.

With K3A/N5A/K10A (STADAFNVYAATRPYLAHC) the “reduction of total anti-CHIKV IgG3 titer” value [1] was 20%, the “virus infectivity (percentage control infection) with peptide-depleted plasma” value [2] was “only a gradual decrease of the neutralizing efficacy” and the “E2EP3-specific IgG3 depleted from patients' plasma by surface-bound peptide” value [3] was 15%.

With STKDNFNVYKATRPYLAHC [E2EP3] the “CHIKV infection (percentage control infection) after blocking with soluble E2EP3 peptide” value [4] was ~40%, the “maximal footpad swelling of PBS-vaccinated group relative to E2EP3-vaccinated group” value (CHIKV (SGP11) [5]) was “more than twice” and the “reduction of infectivity compared to the PBS-vaccinated control group” value (CHIKV infection in vitro) was “approximately 40%”. The “reduction of total anti-CHIKV IgG3 titer” value [1] was ~80%, the “virus infectivity (percentage control infection) with peptide-depleted plasma” value [2] was “more than 50%” and the “effect of soluble peptide on neutralization by CHIKV-infected NHP plasma” value [6] was “abrogated the inhibitory effect of monkey plasma samples significantly”. The CHIKV viremia (CHIKV (SGP11) [7]) was 2,000 pfu/mL, the “anti-E2EP3 IgG titer” value (C57BL/6J mice; 19 days post-vaccination, after 1st boost) was “Significant anti-E2EP3 titer” and the “anti-E2EP3 IgG titer” value (C57BL/6J mice; 27 days post-vaccination, after 2nd boost) was “further increased”.
